Experimental data taken from US11401271B2, “Fused heterocyclic compound, pyrazole-ring-containing fused heterocyclic compound, agricultural composition containing thereof, and method of using the composition” (SOUTH CHINA AGRICULTURAL UNIVERSITY, priority 2017, dated 2022).
Like-named read-outs stand apart in the source and are kept apart here.

Tests used:
Type in all cases: in vivo
Plutella xylostella = assay: whole plant or invertebrate; settings: Plutella xylostella, read-out: Plutella xylostella Mortality (%) 500 ppm
How it was run: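 Leaf immersion feeding test: 2nd-instar larvae (about 35 per vessel, 3 replicates) kept at 28° C. on 1.0 cm cabbage discs soaked 5 s in a 500 ppm solution with 0.05% Tween-80. Mortality after 24 h of exposure, calculated relative to live larvae in the Tween-80 control.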

Spodoptera exigua = assay: whole plant or invertebrate; settings: Spodoptera exigua, read-out: Spodoptera exigua Mortality (%) 500 ppm
How it was run: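 Leaf immersion feeding: second-instar larvae (about 35 per vessel, triplicate) kept at 28° C on discs treated with 500 ppm test solution in 0.05% Tween-80. Mortality at 24 h, calculated relative to surviving larvae in the solvent control.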

Aphis craccivora = assay: whole plant or invertebrate; settings: Aphis craccivora, read-out: Aphis craccivora Mortality (%) 500 ppm
How it was run: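 Mortality scored 24 h after treatment as the reduction in live aphids versus a 0.05% Tween-80 control; three replicates, 23° C. Treatment was a 5 s immersion of wingless adults on bean sprouts in 500 ppm test solution containing 0.05% Tween-80, followed by air-drying.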

Solenopsis invicta = assay: whole plant or invertebrate; settings: Solenopsis invicta, water test tube poison-feeding
How it was run: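 Mortality (%) of Solenopsis invicta, computed against live counts in control tubes, was recorded 24 h and 72 h after treatment at 25 °C. Compound was offered by oral feeding in test tubes at 100 ppm, diluted from a 10 g/L DMSO stock into water with 5% honey and 0.05% Tween-80.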

Bombyx mori L. = assay: Toxicity test on 2nd-instar larvae of Bombyx mori L., leaf immersion feeding method; settings: 1000 ppm, 24 hours
Protocol: (1) Toxicity Test on 2nd-Instar Larvae of Bombyx mori L.
Bombyx mori L. is an important economic insect sensitive to pesticides in an agricultural ecosystem, and is also one of the non-target organisms of environmental ecology listed in pesticide registration of China. The 2nd-instar larvae of Bombyx mori L. were used as test objects and tested by using a leaf immersion feeding method.
Operation process: Samples were weighed accurately, and respectively added with 200 μL of dimethyl sulfoxide to prepare 10 g/L mother liquor which was diluted into a concentration of 1000 ppm with an aqueous solution containing 0.05% of Tween-80 during the test. Young cotyledons of mulberries were collected, washed and air-dried, immersed in a liquid medicine, taken out after 5 seconds, naturally air-dryed, and then transferred into a clean vessel. About 35 2nd -instar larvae of Bombyx mori L. were put into the vessel and fed at a constant temperature of 25° C. Each concentration was repeated 3 times, and an aqueous solution containing 0.05% of Tween-80 was used as a control group. After being treated for 24 hours, a number of dead Bombyx mori L. was counted, and a mortality (%) was calculated according to a formula that mortality (%)=(number of live larvae in the control group −number of treated live larvae)/number of live larvae in the control group * 100%.

Apis cernan = assay: Toxicity test on adult worker bees of Apis cernan, small beaker method; settings: 500 ppm, 48 hours
Protocol: (2) Toxicity Test on Adult Worker Bees of Apis cernan.
Adult worker bees of Apis cernan having the same size were selected for test. The worker bees were collected from beekeeping boxes in the daystart of the test day and tested by using a small beaker method.
Operation process: A small amount of absorbent cotton was put into a 5 mL small beaker, 5 mL of a test liquid medicine (a concentration of 500 ppm) was dropped into the absorbent cotton, and stirred gently to make the absorbent cotton completely wet but not leached obviously, then the small beaker was put into a 500 mL large beaker, then 15 worker bees were put into the large beaker, and finally the large beaker was sealed with gauze. After treatment, the large beaker was placed in a dark room of an artificial climate box. After taking the medicine for 48 hours, a number of live and dead worker bees were investigated.

[1] = 24 h, read-out: Solenopsis invicta Mortality (%) 100 ppm 24 h, 100 ppm, 24 h
[2] = 72 h, read-out: Solenopsis invicta Mortality (%) 100 ppm 72 h, 100 ppm, 72 h

SMILES	mortality at 500 ppm (Plutella xylostella) [%]	mortality at 500 ppm (Spodoptera exigua; 24 h) [%]	mortality at 500 ppm (Aphis craccivora; 24 h) [%]	mortality at 100 ppm (Solenopsis invicta; [1]) [%]	mortality at 100 ppm (Solenopsis invicta; [2]) [%]	Toxicity determination Bombyx mori L. Mortality (%) (Bombyx mori L.)	Toxicity determination Apis cernan Mortality (%) (Apis cernan)	mortality at 500 ppm (Plutella xylostella; 500 ppm, 2nd-instar larvae, leaf immersion feeding) [%]	mortality at 500 ppm (Spodoptera exigua; 500 ppm, 2nd-instar larvae, leaf immersion feeding, 24 hours) [%]	mortality at 500 ppm (Aphis craccivora; 500 ppm, wingless adults, impregnation method, 24 hours) [%]	mortality at 100 ppm (Solenopsis invicta; 24 h, 100 ppm, 24 h, read-out: Solenopsis invicta Mortality (%) 100 ppm 24 h) [%]	mortality at 100 ppm (Solenopsis invicta; 72 h, 100 ppm, 72 h, read-out: Solenopsis invicta Mortality (%) 100 ppm 72 h) [%]
CC1(C)Nc2c(C#N)c(SCc3ccccc3)nn2-c2cnc(F)nc21 [Compound A46]	86	100	100	20	87	7	2					
COc1ccc(-c2cn3c(c2C#N)NC(C#N)(C#N)c2ccc([N+](=O)[O-])cc2-3)cc1 [Compound B1, 2-(4-methoxybenzene)-8-nitropyrrole[1,2-α]quinazoline-3,5,5(4H)-tricyano]	100	100	100	20	100	0	0					
COc1ccc(-c2cn3c(c2C#N)N(C)C(C#N)(C#N)c2ccc([N+](=O)[O-])cc2-3)cc1 [Compound B2]	100	90	93	26	93	3	4					
COc1ccc(-c2cn3c(c2C(C)=O)NC(C#N)(C#N)c2ccc([N+](=O)[O-])cc2-3)cc1 [Compound B3]	100	100	100	24	100	0	3					
COc1ccc(-c2cn3c(c2C(C)=O)NC(C(N)=O)(C(N)=O)c2ccc([N+](=O)[O-])cc2-3)cc1 [Compound B4]	86	100	100	20	88	0	0					
N#Cc1cn2c(c1C#N)NC(C#N)(C#N)c1ccc([N+](=O)[O-])cc1-2 [Compound B6]	90	100	100	44	100	4	5					
N#Cc1cn2c(c1C#N)NC(C#N)(C#N)c1ccc(N)cc1-2 [Compound B7]	100	100	100	38	100	6	6					
C=CC(=O)Nc1ccc2c(c1)-n1cc(C#N)c(C#N)c1NC2(C#N)C#N [Compound B8]	100	100	100	45	100	5	4					
N#Cc1cn2c(c1C#N)NC(C#N)(C#N)c1ccc(Br)cc1-2 [Compound B9]	100	100	100	38	100	0	5					
CS(=O)(=O)Nc1ccc2c(c1)-n1cc(C#N)c(C#N)c1NC2(C#N)C#N [Compound B10]	100	95	100	30	90	3	3					
COC(=O)Nc1ccc2c(c1)-n1cc(C#N)c(C#N)c1NC2(C#N)C#N [Compound B11]						7	3	100	100	100	33	95
CNC(=O)Nc1ccc2c(c1)-n1cc(C#N)c(C#N)c1NC2(C#N)C#N [Compound B12]	100	100	100	40	100	5	6					
C=CC1(CCl)Nc2cc(C#N)nn2-c2c(Cl)cc(C(F)(F)F)cc21 (stereo not drawn) [Compound C1, 9-chloro-7-trifluoromethylphenyl-5-chloromethyl-5-vinyl-4,5-dihydropyrrole[1,5-α]quinazoline-2-cyano]	89	100	100	20	100	7	7					
C=CC1(CC(F)(F)F)Nc2cc(C#N)nn2-c2c(Cl)cc(C(F)(F)F)cc21 (stereo not shown) [Compound C2]	100	90	100	26	93	5	10					
C=CC1(C(F)(F)F)Nc2cc(C#N)nn2-c2c(Cl)cc(C(F)(F)F)cc21 (stereo not shown) [Compound C3]	100	100	100	24	100	12	10					
C=CC1Nc2cc(C#N)nn2-c2c(Cl)cc(C(F)(F)F)cc21 (stereo not shown) [Compound C4]	86	76	100	20	87	3	0					
C=CC1(CCl)Nc2c(-c3ccccc3C(F)(F)F)c(C#N)nn2-c2c(Cl)cc(C(F)(F)F)cc21 (stereo not shown) [Compound C9]	100	100	100	39	100	8	9					
C=CC1(CCl)Nc2c(-c3cc(C)oc3C)c(C#N)nn2-c2c(Cl)cc(C(F)(F)F)cc21 (stereo not shown) [Compound C10]	100	85	100	27	100	10	9					
C=CC1(CCl)Nc2c([S+]([O-])C(F)(F)F)c(C#N)nn2-c2c(Cl)cc(C(F)(F)F)cc21 (stereo not shown) [Compound C13]	100	100	100	32	100	12	10					
